Results published in patent US6274557A, “Inhibition of nitric oxide synthase by amino acids and dipeptides” (Northwestern University, priority 1999, dated 2001).
Where “and” joins values, the source holds several entries; their conditions need not be identical. Equal values may be shown once. Read-outs that look alike come from different tables or passages of the source. Peptide text beside a SMILES is read from it.

Legend:
[1] = target: recombinant murine macrophage nitric oxide synthase (iNOS) (Mus musculus, UniProt P29477); experiment: Hemoglobin capture assay of nitric oxide formation, iNOS; details: for iNOS/eNOS selectivity: Table 2 dipeptides
Method: (§1) Nitric oxide formation was measured by using the hemoglobin capture assay. […] The production of nitric oxide by eNOS was measured as described. […] All assays were in a final volume of 600 μL and were initiated with enzyme.
(§2) The reversible inhibition of NOS by the dipeptide analogs was studied under initial rate conditions with the hemoglobin assay as described above. […] With various L-arginine and inhibitor concentrations.

[2] = target: T1, recombinant bovine endothelial nitric oxide synthase (eNOS) (Bos taurus, UniProt P29473); experiment: Hemoglobin capture assay of nitric oxide formation, eNOS; assay type: biochemical
T1 construct: made in house; host or cells: E. coli
Method: as §1, §2

[3] = target: neuronal nitric oxide synthase (nNOS) from bovine brain (Bos taurus, UniProt A0A3Q1M6M2); experiment: Hemoglobin capture assay of nitric oxide formation, nNOS; details: for nNOS/iNOS selectivity / nNOS/eNOS selectivity: Table 2 dipeptides; for nNOS/iNOS selectivity: in favor of nNOS over iNOS; for nNOS/eNOS selectivity: nNOS over eNOS; for time-dependent inhibition of any of the isoforms: nNOS, iNOS and eNOS
Method: as §1, §2

[4] = test system: nitric oxide synthases (nNOS, iNOS, eNOS); details: literature, cited from earlier work; for isoform selectivity factor: methyl: eNOS and nNOS over iNOS, ethyl: iNOS over nNOS and eNOS
[5] = read-out: Ki iNOS, Table 2, Dixon plots, ^a = uncompetitive inhibition
[6] = read-out: Ki nNOS, Table 2, Dixon plots
[7] = N-substituted L-arginines, ratio of the inverse of the Ki values (IC50 for methyl, ethyl)

Sequence of neuronal nitric oxide synthase (nNOS) from bovine brain (A0A3Q1M6M2 entry or part of it): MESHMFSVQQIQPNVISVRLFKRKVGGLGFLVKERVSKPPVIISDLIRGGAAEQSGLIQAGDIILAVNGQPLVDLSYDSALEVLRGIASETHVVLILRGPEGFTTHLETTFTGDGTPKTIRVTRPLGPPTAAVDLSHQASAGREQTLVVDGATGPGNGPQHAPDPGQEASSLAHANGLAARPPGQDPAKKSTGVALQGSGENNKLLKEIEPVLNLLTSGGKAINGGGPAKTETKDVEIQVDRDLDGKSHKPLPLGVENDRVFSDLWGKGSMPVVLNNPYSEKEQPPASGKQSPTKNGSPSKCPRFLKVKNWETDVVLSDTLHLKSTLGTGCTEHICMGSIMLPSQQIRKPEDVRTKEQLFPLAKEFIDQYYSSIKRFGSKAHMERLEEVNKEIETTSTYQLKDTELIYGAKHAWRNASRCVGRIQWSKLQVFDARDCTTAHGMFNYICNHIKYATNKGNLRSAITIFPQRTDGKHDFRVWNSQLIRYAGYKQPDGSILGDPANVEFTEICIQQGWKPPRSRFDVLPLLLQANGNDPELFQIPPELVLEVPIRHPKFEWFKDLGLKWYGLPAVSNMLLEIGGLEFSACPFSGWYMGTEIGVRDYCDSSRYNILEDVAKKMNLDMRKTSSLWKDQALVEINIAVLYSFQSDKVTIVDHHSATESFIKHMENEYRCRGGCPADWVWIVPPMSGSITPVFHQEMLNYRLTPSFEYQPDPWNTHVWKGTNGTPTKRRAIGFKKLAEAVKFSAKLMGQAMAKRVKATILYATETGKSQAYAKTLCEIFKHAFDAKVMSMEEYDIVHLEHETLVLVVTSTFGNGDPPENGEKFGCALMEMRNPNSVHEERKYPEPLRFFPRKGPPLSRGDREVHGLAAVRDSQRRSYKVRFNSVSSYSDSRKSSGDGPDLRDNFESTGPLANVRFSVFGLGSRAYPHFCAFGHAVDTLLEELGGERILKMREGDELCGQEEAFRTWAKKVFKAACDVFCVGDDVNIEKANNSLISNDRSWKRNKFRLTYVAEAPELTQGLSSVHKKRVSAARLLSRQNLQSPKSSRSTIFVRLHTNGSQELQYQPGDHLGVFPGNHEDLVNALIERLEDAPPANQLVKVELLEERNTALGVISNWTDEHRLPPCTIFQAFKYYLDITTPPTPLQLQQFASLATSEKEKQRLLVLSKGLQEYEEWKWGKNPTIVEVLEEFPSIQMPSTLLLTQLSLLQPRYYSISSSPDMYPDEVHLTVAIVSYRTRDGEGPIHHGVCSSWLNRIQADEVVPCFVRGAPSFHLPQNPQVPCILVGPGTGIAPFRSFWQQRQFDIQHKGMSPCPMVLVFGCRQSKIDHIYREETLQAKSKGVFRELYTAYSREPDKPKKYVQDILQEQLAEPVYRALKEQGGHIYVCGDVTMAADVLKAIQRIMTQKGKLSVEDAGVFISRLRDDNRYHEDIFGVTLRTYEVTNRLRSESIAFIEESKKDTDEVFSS

Row | SMILES | iNOS/eNOS selectivity [1] | Ki [1, 5] [µM] | Ki ([2]; Table 2, Dixon plots) [µM] | nNOS/iNOS selectivity [3] | nNOS/eNOS selectivity [3] | Ki [3, 6] [µM] | further results
1 | C=CCNC(=N)NCCC[C@H](N)C(=O)O [allyl, N^ω -allyl-L-arginine, reference compound] | – | – | – | – | – | – | Ki [1]: 2.1 µM; Ki ([2]; Table 1): 3.1 µM; Ki [3]: 0.2 µM; Selectivity nNOS/eNOS [3]: 15 and 15.5
2 | COC(=O)[C@H](CCCNC(=N)N[N+](=O)[O-])NC(=O)[C@H](N)Cc1ccccc1 [compound 11, D-Phe-L-Arg^NO2 -OMe] (HELM PEPTIDE1{[dF].[N=C(NCCC[C@H](N[*:1])C(=O)[*:2])N[N+](=O)[O-]].[CO[*:1]]}$$$$V2.0) | 7.1 | 1200 | 8500 | 3 | 21.3 | 400 | –
3 | COC(=O)[C@H](Cc1ccccc1)NC(=O)[C@H](N)CCCNC(=N)N[N+](=O)[O-] [compound 8, D-Arg^NO2 -L-Phe-OMe] | 0.22 | 6400 | 1400 | 22.1 | 4.8 | 290 | –
4 | COC(=O)[C@@H](Cc1ccccc1)NC(=O)[C@@H](N)CCCNC(=N)N[N+](=O)[O-] [compound 7, L-Arg^NO2 -D-Phe-OMe] | 5.3 | 100 | 525 | 1.1 | 5.7 | 92 | –
5 | CC(=N)NCCCC[C@H](N)C(=O)O [L-N^6-(1-Iminoethyl)lysine] | – | – | – | – | – | – | selectivity for iNOS over eNOS [4]: 30 fold; selectivity for iNOS over nNOS [4]: 13 fold
6 | COC(=O)[C@@H](CCCN=C(N)N[N+](=O)[O-])NC(=O)[C@H](N)Cc1ccccc1 [compound 12, D-Phe-D-Arg^NO2 -OMe] (HELM PEPTIDE1{[dF].[N=C(NCCC[C@@H](N[*:1])C(=O)[*:2])N[N+](=O)[O-]].[CO[*:1]]}$$$$V2.0) | 0.0014 | 3600 | 5 | – | 2.5 | 2 | selectivity of eNOS over iNOS ([2]; Table 2 dipeptides): 714 fold; time-dependent inhibition of any of the isoforms [3]: None
7 | CCSC(N)=NCCC[C@H](N)C(=O)O [S-ethyl-L-thiocitrulline] | – | – | – | – | – | – | selectivity for nNOS than eNOS [4]: 50 fold
8 | N=C(N)NN [Aminoguanidine] | – | – | – | – | – | – | selectivity for iNOS over eNOS [4]: 500 fold; selectivity for iNOS over nNOS [4]: 50 fold
9 | COC(=O)[C@@H](CCCNC(=N)N[N+](=O)[O-])NC(=O)[C@@H](N)Cc1ccccc1 [compound 10, L-Phe-D-Arg^NO2 -OMe] (HELM PEPTIDE1{F.[N=C(NCCC[C@@H](N[*:1])C(=O)[*:2])N[N+](=O)[O-]].[CO[*:1]]}$$$$V2.0) | 0.02 | 7500 | 150 | 83.3 | 1.7 | 90 | –
10 | CCNC(=N)NCCC[C@H](N)C(=O)O [ethyl, N^ω -ethyl-L-arginine, reference compound] | – | – | – | – | – | – | isoform selectivity factor ([4]; listed as N^ω --ethyl-L-arginine): ~2; isoform selectivity factor ([4]; listed as N^ω -ethyl-L-arginine): about 2; IC50 [1]: 6.1 µM; IC50 [2]: 9.5 µM; IC50 [3]: 16 µM; Selectivity nNOS/eNOS [3, 7]: 0.6; Selectivity nNOS/iNOS [3, 7]: 0.4
11 | NC(=NCCC[C@H](N)C(=O)O)N[N+](=O)[O-] [N-nitro-L-arginine, N^ω --Nitro-L-arginine, reference compound] | – | – | – | – | – | – | selectivity for nNOS over iNOS [4]: about 300 fold; Ki ([3]; read-out: KI (time-dependent inhibition), with nNOS): 9.3 µM; kinact ([3]; with nNOS): 0.132 min⁻¹
12 | N=C(NCCC[C@H](NC(=O)[C@@H](N)Cc1ccccc1)C(=O)OCc1ccccc1)N[N+](=O)[O-] [compound 6, L-Phe-L-Arg^NO2 -OBn] (HELM PEPTIDE1{F.[N=C(NCCC[C@H](N[*:1])C(=O)[*:2])N[N+](=O)[O-]].[c1ccc(CO[*:1])cc1]}$$$$V2.0) | 5.6 | 45 | 250 | 0.41 | 2.3 | 110 | –
13 | COC(=O)[C@@H](Cc1ccccc1)NC(=O)[C@H](N)CCCNC(=N)N[N+](=O)[O-] [compound 9, D-Arg^NO2 -D-Phe-OMe] | 0.058 | 6500 | 375 | 43.3 | 2.5 | 150 | –
14 | N=C(NCCC[C@H](N)C(=O)N[C@@H](Cc1ccccc1)C(=O)O)N[N+](=O)[O-] [compound 1, L-Arg^NO2 L-Phe] | 2.5 | 160 | 395 | 8.9 | 21.9 | 18 | time-dependent inhibition of any of the isoforms [3]: None
15 | CSC(N)=NCCC[C@H](N)C(=O)O [S-Methyl-L-thiocitrulline] | – | – | – | – | – | – | selectivity for nNOS than eNOS [4]: 10 fold
16 | CCCNC(=N)NCCC[C@H](N)C(=O)O [propyl, N^ω -Propyl-L-arginine] | – | – | – | – | – | – | Ki [1]: 180 µM; type of reversible inhibition of iNOS ([1]; Cornish-Bowden replots): competitive inhibitor; type of reversible inhibition of eNOS ([2]; Cornish-Bowden replots): competitive inhibitor; Ki ([2]; Table 1): 8.5 µM; Ki [3]: 0.057 µM; type of reversible inhibition of nNOS [3]: competitive inhibitor
17 | CCSC(=N)N [S-ethylisothiourea] | – | – | – | – | – | – | selectivity in favor of iNOS [4]: 10-40 fold
18 | CC1CCN=C(N)S1 (stereo not shown) [2-Amino-5,6-dihydro-6-methyl-4H-1,3-thiazine] | – | – | – | – | – | – | selectivity in favor of iNOS [4]: 10-40 fold
19 | N=C(NCCC[C@H](NC(=O)[C@@H](N)Cc1ccccc1)C(=O)O)N[N+](=O)[O-] [compound 2, L-Phe-L-Arg^NO2] (HELM PEPTIDE1{F.[N=C(NCCC[C@H](N[*:1])C(=O)O)N[N+](=O)[O-]]}$$$$V2.0) | 5.3 | 93 | 490 | 0.66 | 3.5 | 140 | time-dependent inhibition of any of the isoforms [3]: None
20 | COC(=O)[C@H](Cc1ccccc1)NC(=O)[C@@H](N)CCCNC(=N)N[N+](=O)[O-] [compound 3, L-Arg^NO2 -L-Phe-OMe] | 8.9 | 45 | 400 | 3.2 | 28.6 | 14 | –
